Our source for the inhibition and clearance values is ChEMBL document CHEMBL4665648, “Potent and selective inhibitors of receptor-interacting protein kinase 1 that lack an aromatic back pocket group” (Bioorg Med Chem Lett, 2019).

For series [1], the target named is Mitogen-activated protein kinase kinase kinase 20 (Homo sapiens) (UniProt Q9NYL2). The experiment in a line: Inhibition of tracer 178 binding to recombinant human N-terminal GST-tagged full length ZAK expressed in baculovirus expression system at 10 uM incubated for 60 mins by Lanthascreen assay relative to control. (In TR-FRET formats the signal depends on donor and acceptor labels being close together.)

Series [2] concerns the target Serine/threonine-protein kinase Nek1 (Homo sapiens) (UniProt Q96PY6). Put plainly: Inhibition of recombinant human GST-tagged NEK1 (1 to 505 residues) expressed in baculovirus expression system using Ser/Thr 07 as substrate at 10 uM incubated for 60 mins by Z'-lyte assay relative to control.
The target in series [3] is Protein kinase C zeta type (Homo sapiens) (UniProt Q05513). Put plainly: Inhibition of recombinant human untagged full length PKCzeta expressed in baculovirus expression system using Ser/Thr 07 as substrate at 10 uM incubated for 60 mins by Z'-lyte assay relative to control.
Series [4] concerns the target Ephrin type-A receptor 1 (Homo sapiens) (UniProt P21709). The experiment in a line: Inhibition of recombinant human GST-tagged EPHA1 (568 to 976 residues) expressed in baculovirus expression system using Tyr 02 as substrate at 10 uM incubated for 60 mins by Z'-Lyte assay relative to control.
The target in series [5] is Calcium/calmodulin-dependent protein kinase type IV (Homo sapiens) (UniProt Q16566). Put plainly: Inhibition of recombinant human GST-tagged full length CAMK4 expressed in Escherichia coli expression system using Ser/Thr 13 as substrate at 10 uM incubated for 60 mins by Z'-Lyte assay relative to control.
In series [6] the target is Serine/threonine-protein kinase 33 (Homo sapiens) (UniProt Q9BYT3). The experiment in a line: Inhibition of tracer 236 binding to recombinant human His-tagged full length STK33 expressed in baculovirus expression system at 10 uM incubated for 60 mins by Lanthascreen assay relative to control.
Series [7] can be described thus: Clearance in Sprague-Dawley rat at 0.5 mg/kg, iv or 2 mg/kg, po. It counts as ADME, organism-based. Particulars: in vivo.
Series [8] concerns the target Dual specificity protein kinase TTK (Homo sapiens) (UniProt P33981). The experiment in a line: Inhibition of tracer 236 binding to recombinant human GST-tagged full length TTK expressed in baculovirus expression system at 10 uM incubated for 60 mins by Lanthascreen assay relative to control.
The target of series [9] is Vascular endothelial growth factor receptor 1 (Homo sapiens) (UniProt P17948). Put plainly: Inhibition of recombinant human GST-tagged FLT1 (781 to 1338 residues) expressed in baculovirus expression system using Tyr 04 as substrate at 10 uM incubated for 60 mins by Z'-Lyte assay relative to control.
Series [10] concerns the target Tyrosine-protein kinase Srms (Homo sapiens) (UniProt Q9H3Y6). The experiment in a line: Inhibition of recombinant human GST-tagged full length SRM expressed in baculovirus expression system using Tyr 01 as substrate at 10 uM incubated for 60 mins by Z'-Lyte assay relative to control.
The target of series [11] is Casein kinase I isoform delta (Homo sapiens) (UniProt P48730). The experiment in a line: Inhibition of recombinant human GST-tagged full length CK1delta expressed in baculovirus expression system using Ser/Thr 11 as substrate at 10 uM incubated for 60 mins by Z'-Lyte assay relative to control.
For series [12], the target named is Tyrosine-protein kinase TXK (Homo sapiens) (UniProt P42681). Put plainly: Inhibition of recombinant human N-terminal GST-tagged TXK (260 to 527 residues) expressed in baculovirus expression system using Tyr 06 as substrate at 10 uM incubated for 60 mins by Z'-Lyte assay relative to control.
Series [13] concerns the target Macrophage colony-stimulating factor 1 receptor (Homo sapiens) (UniProt P07333). The experiment in a line: Inhibition of recombinant human His-tagged CSF1R (538 to 910 residues) expressed in baculovirus expression system using Tyr 01 as substrate at 10 uM incubated for 60 mins by Z'-Lyte assay relative to control.
Series [14] has as its target Hepatocyte growth factor receptor (Homo sapiens) (UniProt P08581). Put plainly: Inhibition of recombinant human His-tagged MET (956 to 1390 residues) expressed in baculovirus expression system using Tyr 06 as substrate at 10 uM incubated for 60 mins by Z'-lyte assay relative to control.
In series [15] the target is Phosphorylase b kinase gamma catalytic chain, liver/testis isoform (Homo sapiens) (UniProt P15735). Put plainly: Inhibition of recombinant human N-terminal GST-tagged full length PHKG2 expressed in baculovirus expression system using Ser/Thr 07 as substrate at 10 uM incubated for 60 mins by Z'-lyte assay relative to control.
Series [16] concerns the target Calcium/calmodulin-dependent protein kinase kinase 2 (Homo sapiens) (UniProt Q96RR4). Put plainly: Inhibition of tracer 236 binding to recombinant human GST-tagged full length CAMKK2 expressed in baculovirus expression system at 10 uM incubated for 60 mins by Lanthascreen assay relative to control.
Series [17] deals with Beta-adrenergic receptor kinase 1 (Homo sapiens) (UniProt P25098). Put plainly: Inhibition of recombinant human His-tagged full length GRK2 expressed in baculovirus expression system using Ser/Thr 16 as substrate at 10 uM incubated for 60 mins by Z'-Lyte assay relative to control.
Series [18] deals with Tyrosine-protein kinase Fgr (Homo sapiens) (UniProt P09769). Put plainly: Inhibition of recombinant human C-terminal His-tagged full length FGR expressed in baculovirus expression system using Tyr 02 as substrate at 10 uM incubated for 60 mins by Z'-Lyte assay relative to control.
In series [19] the target is Serine/threonine-protein kinase B-raf (Homo sapiens) (UniProt P15056). Put plainly: Inhibition of recombinant human GST-tagged full length BRAF expressed in baculovirus expression system using Ser/Thr 03 as substrate at 10 uM incubated for 60 mins by Z'-Lyte assay relative to control.
Series [20] deals with Mitogen-activated protein kinase 9 (Homo sapiens) (UniProt P45984). The experiment in a line: Inhibition of recombinant human His-tagged full length JNK2 expressed in baculovirus expression system using Ser/Thr 04 as substrate at 10 uM incubated for 60 mins by Z'-lyte assay relative to control.
Series [21] deals with Dual specificity mitogen-activated protein kinase kinase 1 (Homo sapiens) (UniProt Q02750). The experiment in a line: Inhibition of recombinant human His-tagged full length MEK1 expressed in baculovirus expression system using Ser/Thr 03 as substrate at 10 uM incubated for 60 mins by Z'-lyte assay relative to control.
Series [22] addresses Tyrosine-protein kinase SYK (Homo sapiens) (UniProt P43405). The experiment in a line: Inhibition of recombinant human N-terminalGST-tagged full length SYK expressed in baculovirus expression system using Tyr 02 as substrate at 10 uM incubated for 60 mins by Z'-Lyte assay relative to control.
Series [23] deals with Tyrosine-protein kinase receptor TYRO3 (Homo sapiens) (UniProt Q06418). Put plainly: Inhibition of recombinant human GST-tagged full length RSE (451 to 890 residues) expressed in baculovirus expression system using Tyr 02 as substrate at 10 uM incubated for 60 mins by Z'-Lyte assay relative to control.
Series [24] concerns the target Receptor tyrosine-protein kinase erbB-4 (Homo sapiens) (UniProt Q15303). The experiment in a line: Inhibition of recombinant human N-terminal GST-tagged ERBB4 (708 to 993 residues) expressed in baculovirus expression system using Tyr 01 as substrate at 10 uM incubated for 60 mins by Z'-Lyte assay relative to control.

Each structure is given as a SMILES string.

Serine/threonine-protein kinase 33 (Homo sapiens), sequence (Q9BYT3 whole entry, looked up): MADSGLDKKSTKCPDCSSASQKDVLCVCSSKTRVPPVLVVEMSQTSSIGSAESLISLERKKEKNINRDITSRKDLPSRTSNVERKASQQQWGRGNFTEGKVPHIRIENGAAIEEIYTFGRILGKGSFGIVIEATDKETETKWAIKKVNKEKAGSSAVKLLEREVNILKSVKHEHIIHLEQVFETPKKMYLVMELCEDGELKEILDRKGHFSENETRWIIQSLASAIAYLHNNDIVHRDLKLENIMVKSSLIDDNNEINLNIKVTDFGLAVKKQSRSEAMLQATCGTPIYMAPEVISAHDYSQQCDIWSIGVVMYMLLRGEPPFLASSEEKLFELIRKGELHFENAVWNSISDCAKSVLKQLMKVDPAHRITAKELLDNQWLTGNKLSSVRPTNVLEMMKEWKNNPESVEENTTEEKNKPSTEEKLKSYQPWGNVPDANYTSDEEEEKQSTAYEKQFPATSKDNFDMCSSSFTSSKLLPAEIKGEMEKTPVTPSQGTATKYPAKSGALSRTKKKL
Hepatocyte growth factor receptor (Homo sapiens), sequence (P08581 whole entry, the tested form may be a part, canonical isoform): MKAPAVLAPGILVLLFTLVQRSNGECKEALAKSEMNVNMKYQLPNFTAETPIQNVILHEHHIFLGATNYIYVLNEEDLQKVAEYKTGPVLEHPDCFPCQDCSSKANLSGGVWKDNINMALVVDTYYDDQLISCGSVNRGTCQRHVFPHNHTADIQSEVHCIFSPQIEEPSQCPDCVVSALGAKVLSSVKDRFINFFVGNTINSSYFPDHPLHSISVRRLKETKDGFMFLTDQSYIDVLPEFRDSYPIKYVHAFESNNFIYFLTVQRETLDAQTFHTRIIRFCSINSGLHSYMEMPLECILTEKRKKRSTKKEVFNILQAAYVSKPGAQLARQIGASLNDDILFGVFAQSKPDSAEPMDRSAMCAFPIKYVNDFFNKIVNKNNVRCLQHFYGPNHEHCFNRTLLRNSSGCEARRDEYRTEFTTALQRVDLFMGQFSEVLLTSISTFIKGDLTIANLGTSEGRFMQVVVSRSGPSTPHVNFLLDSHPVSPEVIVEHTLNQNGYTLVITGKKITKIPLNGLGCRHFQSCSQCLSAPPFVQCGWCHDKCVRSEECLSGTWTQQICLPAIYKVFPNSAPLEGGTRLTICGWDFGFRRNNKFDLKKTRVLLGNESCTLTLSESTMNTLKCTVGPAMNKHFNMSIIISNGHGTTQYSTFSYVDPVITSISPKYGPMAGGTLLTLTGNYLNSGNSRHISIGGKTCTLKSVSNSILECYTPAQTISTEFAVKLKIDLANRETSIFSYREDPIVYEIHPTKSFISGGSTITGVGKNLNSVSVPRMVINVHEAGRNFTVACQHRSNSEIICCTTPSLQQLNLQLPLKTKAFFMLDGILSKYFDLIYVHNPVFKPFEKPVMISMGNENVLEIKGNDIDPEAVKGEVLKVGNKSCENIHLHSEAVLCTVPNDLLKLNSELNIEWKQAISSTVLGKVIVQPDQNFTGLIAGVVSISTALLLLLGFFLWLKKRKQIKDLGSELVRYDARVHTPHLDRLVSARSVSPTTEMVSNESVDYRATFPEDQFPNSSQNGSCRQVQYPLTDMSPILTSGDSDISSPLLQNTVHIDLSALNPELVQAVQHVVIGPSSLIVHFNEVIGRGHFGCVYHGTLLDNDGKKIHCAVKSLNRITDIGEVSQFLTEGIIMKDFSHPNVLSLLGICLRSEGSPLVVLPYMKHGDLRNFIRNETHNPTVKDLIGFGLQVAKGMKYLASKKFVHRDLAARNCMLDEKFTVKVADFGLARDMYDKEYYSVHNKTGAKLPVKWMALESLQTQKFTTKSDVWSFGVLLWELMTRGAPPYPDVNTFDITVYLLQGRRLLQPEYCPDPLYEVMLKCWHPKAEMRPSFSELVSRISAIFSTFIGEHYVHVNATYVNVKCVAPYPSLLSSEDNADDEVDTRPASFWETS
Phosphorylase b kinase gamma catalytic chain, liver/testis isoform (Homo sapiens), sequence (P15735 whole entry, canonical isoform): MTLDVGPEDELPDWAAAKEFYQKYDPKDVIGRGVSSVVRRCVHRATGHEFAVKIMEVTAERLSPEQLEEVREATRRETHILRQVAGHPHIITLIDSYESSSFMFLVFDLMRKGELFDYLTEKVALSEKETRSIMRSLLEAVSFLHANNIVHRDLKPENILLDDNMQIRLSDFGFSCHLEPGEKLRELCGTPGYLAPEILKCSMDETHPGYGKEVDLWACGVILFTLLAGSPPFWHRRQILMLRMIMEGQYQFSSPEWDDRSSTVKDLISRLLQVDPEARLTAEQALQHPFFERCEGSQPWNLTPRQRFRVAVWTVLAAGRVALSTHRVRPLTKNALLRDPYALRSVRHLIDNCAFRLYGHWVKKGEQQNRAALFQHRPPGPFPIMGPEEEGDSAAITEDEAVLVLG
Casein kinase I isoform delta (Homo sapiens), sequence (P48730 whole entry, looked up, the tested form may be a part, canonical isoform): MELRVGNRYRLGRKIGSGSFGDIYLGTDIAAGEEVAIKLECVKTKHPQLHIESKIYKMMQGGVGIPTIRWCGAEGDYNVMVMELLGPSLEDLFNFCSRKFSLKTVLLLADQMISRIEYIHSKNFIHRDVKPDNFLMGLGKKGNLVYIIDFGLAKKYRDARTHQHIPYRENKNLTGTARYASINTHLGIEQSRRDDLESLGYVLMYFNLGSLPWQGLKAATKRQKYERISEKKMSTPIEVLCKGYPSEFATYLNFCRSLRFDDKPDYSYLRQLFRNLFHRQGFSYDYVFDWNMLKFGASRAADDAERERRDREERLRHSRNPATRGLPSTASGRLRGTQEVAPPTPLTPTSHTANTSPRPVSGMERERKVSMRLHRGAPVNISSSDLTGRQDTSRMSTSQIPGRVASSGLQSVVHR
Mitogen-activated protein kinase 9 (Homo sapiens), sequence (P45984 whole entry, looked up): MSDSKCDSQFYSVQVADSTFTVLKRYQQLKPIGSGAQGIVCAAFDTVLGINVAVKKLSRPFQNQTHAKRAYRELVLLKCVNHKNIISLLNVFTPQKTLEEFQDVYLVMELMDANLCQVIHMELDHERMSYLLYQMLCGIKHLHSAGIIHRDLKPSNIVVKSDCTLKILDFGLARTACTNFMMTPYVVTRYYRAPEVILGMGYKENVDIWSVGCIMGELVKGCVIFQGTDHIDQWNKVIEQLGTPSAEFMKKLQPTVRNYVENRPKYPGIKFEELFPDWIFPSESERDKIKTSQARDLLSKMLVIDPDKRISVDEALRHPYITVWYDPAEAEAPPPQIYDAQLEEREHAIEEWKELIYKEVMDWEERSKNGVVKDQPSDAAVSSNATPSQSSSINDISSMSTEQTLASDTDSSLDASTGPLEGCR
Receptor tyrosine-protein kinase erbB-4 (Homo sapiens), sequence (Q15303 whole entry, the tested form may be a part): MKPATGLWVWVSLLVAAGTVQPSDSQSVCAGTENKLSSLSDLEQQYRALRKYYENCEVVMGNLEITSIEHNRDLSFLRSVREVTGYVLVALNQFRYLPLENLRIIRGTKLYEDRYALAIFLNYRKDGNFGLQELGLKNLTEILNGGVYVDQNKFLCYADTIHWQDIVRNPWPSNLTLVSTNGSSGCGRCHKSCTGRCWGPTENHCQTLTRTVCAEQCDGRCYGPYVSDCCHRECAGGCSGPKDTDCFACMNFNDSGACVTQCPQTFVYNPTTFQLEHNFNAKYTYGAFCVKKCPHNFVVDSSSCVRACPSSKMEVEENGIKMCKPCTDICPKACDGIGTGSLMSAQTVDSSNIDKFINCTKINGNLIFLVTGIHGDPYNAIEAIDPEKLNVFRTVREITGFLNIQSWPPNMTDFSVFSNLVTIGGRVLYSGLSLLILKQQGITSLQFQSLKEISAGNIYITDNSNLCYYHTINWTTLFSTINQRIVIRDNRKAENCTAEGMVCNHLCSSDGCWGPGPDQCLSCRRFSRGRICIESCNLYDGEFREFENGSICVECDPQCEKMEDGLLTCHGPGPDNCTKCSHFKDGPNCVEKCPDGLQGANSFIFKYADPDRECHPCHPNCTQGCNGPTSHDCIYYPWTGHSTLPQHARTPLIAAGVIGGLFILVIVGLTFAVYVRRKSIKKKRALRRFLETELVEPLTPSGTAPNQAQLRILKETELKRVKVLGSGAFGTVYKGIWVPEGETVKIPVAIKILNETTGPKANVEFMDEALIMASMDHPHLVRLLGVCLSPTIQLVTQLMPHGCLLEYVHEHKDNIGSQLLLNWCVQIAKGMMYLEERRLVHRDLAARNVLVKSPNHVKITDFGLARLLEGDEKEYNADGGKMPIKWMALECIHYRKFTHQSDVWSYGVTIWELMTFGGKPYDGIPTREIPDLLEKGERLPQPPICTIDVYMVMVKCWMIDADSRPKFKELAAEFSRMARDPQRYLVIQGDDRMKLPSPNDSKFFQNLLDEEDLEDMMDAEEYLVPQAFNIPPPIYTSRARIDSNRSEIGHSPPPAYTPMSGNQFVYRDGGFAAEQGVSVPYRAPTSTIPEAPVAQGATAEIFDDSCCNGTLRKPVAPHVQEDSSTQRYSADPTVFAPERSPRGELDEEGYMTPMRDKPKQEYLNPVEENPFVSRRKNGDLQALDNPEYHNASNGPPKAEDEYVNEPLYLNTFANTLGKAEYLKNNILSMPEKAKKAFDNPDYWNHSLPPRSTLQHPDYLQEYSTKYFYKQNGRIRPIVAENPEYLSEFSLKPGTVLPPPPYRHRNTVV
Tyrosine-protein kinase TXK (Homo sapiens), sequence (P42681 whole entry, the tested form may be a part): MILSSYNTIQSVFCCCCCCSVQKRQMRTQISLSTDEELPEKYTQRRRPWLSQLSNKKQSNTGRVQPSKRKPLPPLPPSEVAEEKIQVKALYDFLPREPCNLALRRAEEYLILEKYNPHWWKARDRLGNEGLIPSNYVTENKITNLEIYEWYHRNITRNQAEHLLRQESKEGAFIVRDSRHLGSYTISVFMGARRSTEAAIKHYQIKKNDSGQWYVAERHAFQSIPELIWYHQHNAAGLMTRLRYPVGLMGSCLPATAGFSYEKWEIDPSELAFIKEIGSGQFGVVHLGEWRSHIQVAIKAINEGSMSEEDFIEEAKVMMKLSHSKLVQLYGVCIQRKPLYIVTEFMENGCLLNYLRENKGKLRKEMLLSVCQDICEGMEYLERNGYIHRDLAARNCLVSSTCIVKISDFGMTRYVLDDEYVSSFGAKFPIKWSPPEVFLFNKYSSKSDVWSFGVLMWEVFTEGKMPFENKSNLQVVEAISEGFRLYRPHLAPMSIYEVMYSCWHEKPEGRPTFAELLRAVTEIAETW

For `CN1C(=O)[C@@H](NC(=O)c2n[nH]c3ncc(C(F)(F)C(F)(F)F)cc23)COc2ccccc21`, the inhibition (usually the drop in the measured response relative to a control, in per cent) in [1] was 6.5%; in [2], 9%; in series [3], 5.5%; in series [4], 6.5%; in series [5], -2%; in series [6], 1%. The inhibition is -6.5% in [8]; 3.5% in [9]; 2.5% in series [10]; 1% in series [11]; 8.5% in series [12]; 15% in series [13]. The inhibition was 4.5% in [14]; 3.5% in [15]; 2% in series [16]; -0.5% in series [17]; 1.5% in series [18]; 26.5% in series [19]. The inhibition in series [20] is 0.5%; in series [21], -6.5%; in series [22], 6%; in series [23] it was 1.5%; in series [24] it was 9%. In series [7], this molecule showed a clearance of 7.1 mL/min/kg.
